Measurements reported in patent publication US20230150951A1, “2,5- OR 2,6-DISUBSTITUTED HYDROQUINONE DERIVATIVES WITH AT LEAST ONE CARBOXY, SULFO OR AMIDO GROUP USEFUL AS MEDICAMENTS” (OM PHARMA SA, priority 2020, published 2023).
Like-named read-outs stand apart in the source and are kept apart here.

Legend:
Assay type in all cases: cell-based
GM-CSF = test: Cytokine release after LPS induction on human whole blood: GM-CSF
Method: (§1) Aim of this in vitro method is to assess compounds effects on release of a panel of cytokines from whole blood following lipopolysaccharide (LPS) induced inflammatory reaction. Whole blood was incubated with compounds for 1 h prior to LPS induction. Cytokine levels in blood were measured using a multiplex FACS-based panel.
(§2) IC50 values determined for the tested compounds expressed in microM [μM] and the values for the inhibition of cytokines were listed for each compound.
(§3) Effect on cytokines release after LPS induction was performed on the compounds dissolved in DMSO or H2O to reach 10-fold concentrated stock solutions and dissolved in culture media.
(§4) Test system: Whole blood was removed from a single donor (into lithium heparin coated tubes; BD Vacutainer; 367886) and diluted 1:5 with RPMI 1640 (Thermo Fisher, 61870036). Within 30 minutes of sampling, blood was incubated with compounds for 1 h prior to LPS stimulation (O111:B4—Sigma L4391; 10 ng/ml final concentration). Stimulation continued under standard cell culture conditions (37° C. with 5% CO2) overnight (18 h), after which plates were centrifuged and supernatant removed and frozen at −80° C. until used for analyses.
(§5) Dilution of test compounds: 10×concentrated solutions (concerning to the final assay concentrations) of each test compound were prepared with the appropriate solvent (in DMSO or in water). These 10× compound solutions (10 μl) were then added to 90 μl pre-diluted whole blood (whole blood: RPMI1640, 1:5) resulting in the final assay concentration.
(§6) Test method: Diluted whole blood (80 μl) was pre-incubated with compounds (10 μl) to give final assay concentrations of 100, 30, 10, 3, 1, 0.3 and 0.1×10^−6M. Blood was incubated at 37° C. with 5% CO2 for 1 h. LPS was diluted in cell culture media to a concentration of […]; 10 μl was added to the whole blood to give a final concentration of 10 ng/ml. Plates were incubated at 37° C. for 18 h. Plates were centrifuged at 3,000 RPM for 5 minutes at 4° C. and supernatant removed and frozen at −80° C. until FACS analysis was carried out.
(§7) Cytokine release was measured using a custom multiplex system (ELISA Genie) according to manufacturers instructions. Prepared samples were run on an Attune NxT flow cytometer (Thermo Fisher).
(§8) Quantification of cytokine release inhibition: known concentration standards were run as part of the cytokine panel to allow quantification of each cytokine concentration in each sample. This was carried out using FCAP Array v3.0 software.
(§9) Results: The dose response relationship on cytokine release following LPS induction of inflammatory response in whole blood was assessed for all compounds. IC50 values were determined for each compound for a panel of cytokines (GM-CSF, IFN-gamma, IL-1beta, IL-2, IL-4, IL-5, IL-6, IL-8, IL-9, IL-10, IL-12p40, IL-13, IL-17A, IL-17F, IL-18, IL-21, IL-22, IL-33, TGF-beta, TNF-alpha, TNF-beta).

IL-2 = test: Cytokine release after LPS induction on human whole blood: IL-2
Method: as §1, §2, §3, §4, §5, §6, §7, §8, §9

IL-6 = test: Cytokine release after LPS induction on human whole blood: IL-6
Method: as §1, §2, §3, §4, §5, §6, §7, §8, §9

IL-12p70 = test: Cytokine release after LPS induction on human whole blood: IL-12p70
IL-17F = test: Cytokine release after LPS induction on human whole blood: IL-17F
Method: as §1, §2, §3, §4, §5, §6, §7, §8, §9

IL-21 = test: Cytokine release after LPS induction on human whole blood: IL-21
Method: as §1, §2, §3, §4, §5, §6, §7, §8, §9

[1] = Homo sapiens, LPS 10 ng/ml, 18 h, read-out: Whole Blood: GM-CSF IC50
[2] = human whole blood, inhibition of LPS induced inflammation, read-out: IC50 GM-CSF
[3] = Homo sapiens, LPS 10 ng/ml, 18 h, read-out: Whole Blood: IL-2 IC50
[4] = human whole blood, inhibition of LPS induced inflammation, read-out: IC50 IL-2
[5] = Homo sapiens, LPS 10 ng/ml, 18 h, read-out: Whole Blood: IL-6 IC50
[6] = human whole blood, inhibition of LPS induced inflammation, read-out: IC50 IL-6
[7] = Homo sapiens, LPS 10 ng/ml, 18 h, read-out: Whole Blood: IL-12p70 IC50
[8] = human whole blood, inhibition of LPS induced inflammation, read-out: IC50 IL-12p70
[9] = Homo sapiens, LPS 10 ng/ml, 18 h, read-out: Whole Blood: IL-17F IC50
[10] = human whole blood, inhibition of LPS induced inflammation, read-out: IC50 IL-17F
[11] = Homo sapiens, LPS 10 ng/ml, 18 h, read-out: Whole Blood: IL-21 IC50
[12] = human whole blood, inhibition of LPS induced inflammation, read-out: IC50 IL-21

Compound | IC50 (GM-CSF; [1]) [µM] | IC50 (GM-CSF; [2]) [µM] | IC50 (IL-2; [3]) [µM] | IC50 (IL-2; [4]) [µM] | IC50 (IL-6; [5]) [µM] | IC50 (IL-6; [6]) [µM] | IC50 (IL-12p70; [7]) [µM] | IC50 (IL-12p70; [8]) [µM] | IC50 (IL-17F; [9]) [µM] | IC50 (IL-17F; [10]) [µM] | IC50 (IL-21; [11]) [µM] | IC50 (IL-21; [12]) [µM] | further results
O=C(O)c1cc(O)c(C(=O)Nc2ccccc2C(=O)O)cc1O [Ia-001a, 4-(2-carboxyphenylaminocarbonyl)-2,5-dihydroxybenzoic acid] | > 100 | 100 | 94.3 | 94.3 | 1.24 | 1.24 | 1.5 | 1.5 | 14.7 | 14.7 | > 100 | 100 | –
O=C(O)Cc1cc(O)c(C(=O)Nc2c(C(=O)O)cccc2C(=O)O)cc1O [IIIa-013a, 2-(4-(carboxymethyl)-2,5-dihydroxybenzamido)isophthalic acid] | 27.8 | 27.8 | 57.1 | 57.1 | 3.55 | 3.55 | 0.5 | 0.5 | 0.41 | 0.41 | 1.63 | 1.63 | –
O=C(Nc1ccccc1-c1nnn[nH]1)c1cc(O)c(C(=O)Nc2ccccc2-c2nnn[nH]2)cc1O [Ic-001aTz2, N1,N4-bis(2-(1H-tetrazol-5-yl)phenyl)-2,5-dihydroxyterephthalamide] | > 100 | – | 9.45 | – | 0.52 | – | 29.1 | – | 0.15 | – | 32 | – | –
COC(=O)c1cc(OC(C)=O)cc(CS(=O)(=O)Cc2cc(OC(C)=O)cc(C(=O)OC)c2OC(C)=O)c1OC(C)=O [IVc-059a-E2-A4] | 1.83 | 1.83 | 10.4 | 10.4 | 0.99 | 0.99 | 51.4 | 51.4 | 25.8 | 25.8 | > 100 | 100 | –
O=C(O)c1cc(O)cc(CS(=O)(=O)Cc2cc(O)cc(C(=O)O)c2O)c1O [IVc-059a, 3-((2,5-Dihydroxy-3-carboxyphenyl)methylsulfonylmethyl)-2,5-dihydroxybenzoic acid] | > 100 | 100 | 21.2 | 21.2 | 0.11 | 0.11 | 42 | 42 | > 100 | 100 | 1.87 | 1.87 | –
O=C(O)c1cc(O)c(C(=O)Nc2ccc(-c3nnn[nH]3)cc2)cc1O [Ia-003a-Tz, 4-(4-(1H-tetrazol-5-yl)phenyl-aminocarbonyl)-2,5-dihydroxybenzoic acid] | > 100 | 100 | 43 | 43 | 1.41 | 1.41 | 1.26 | 1.26 | 83.9 | 83.9 | 1.49 | 1.49 | –
O=C(O)c1cc(NC(=O)c2cc(O)c(C(=O)O)cc2O)cc(NC(=O)c2cc(O)c(C(=O)O)cc2O)c1 [Ib-010a, 3,5-bis(2,5-dihydroxy-4-carboxybenzoylamino)benzoic acid] | > 100 | 100 | 2.74 | 2.74 | 1.02 | 1.02 | 0.27 | 0.27 | > 100 | 100 | 67.8 | 67.8 | –
CC(=O)N(Cc1cc(O)c(C(=O)O)cc1O)Cc1cc(O)c(C(=O)O)cc1O [IIIc-057a, N,N-Bis(4-carboxy-2,5-dihydroxyphenylmethyl)acetamide] | > 100 | 100 | 24.2 | 24.2 | 0.19 | 0.19 | 0.73 | 0.73 | 5.06 | 5.06 | 1.56 | 1.56 | –
O=C(O)c1cc(O)c(C(=O)Nc2ccccc2-c2nnn[nH]2)cc1O [Ia-001a-Tz, 4-(2-(1H-tetrazol-5-yl)phenyl-aminocarbonyl)-2,5-dihydroxybenzoic acid] | > 100 | 100 | 7.99 | 7.99 | 0.75 | 0.75 | 32.4 | 32.4 | 46.5 | 46.5 | > 100 | 100 | –
O=C(O)c1cc(O)cc(CSCc2cc(O)cc(C(=O)O)c2O)c1O [IVc-058a, 3-((2,5-Dihydroxy-3-carboxyphenyl)methylthiomethyl)-2,5-dihydroxybenzoic acid] | > 100 | 100 | 3.82 | 3.82 | 0.21 | 0.21 | 4.23 | 4.23 | 86.8 | 86.8 | 3.2 | 3.2 | –
O=C(O)Cc1cc(O)c(C(=O)Nc2ccccc2-c2nnn[nH]2)cc1O [IIIa-001aTz] | > 100 | 100 | > 100 | 100 | 1.98 | 1.98 | 0.48 | 0.48 | 0.16 | 0.16 | 3 | 3 | –
O=C(O)c1cc(NC(=O)c2cc(O)c(C(=O)Nc3ccccc3-c3nnn[nH]3)cc2O)ccc1O [Ic-001a-Tz/004a, 5-(4-(2-(1H-tetrazol-5-yl)phenylaminocarbonyl)-2,5-dihydroxybenzamido)-2-hydroxy benzoic acid] | – | – | – | – | – | – | – | – | – | – | – | – | IC50 (GM-CSF; Homo sapiens, 18 h, read-out: Whole Blood: GM-CSF IC50): 3.4 µM; IC50 (GM-CSF; Homo sapiens, read-out: IC50 GM-CSF): 3.4 µM; IC50 (IL-2; Homo sapiens, 18 h, read-out: Whole Blood: IL-2 IC50): 4.91 µM; IC50 (IL-2; Homo sapiens, read-out: IC50 IL-2): 4.91 µM; IC50 (IL-6; Homo sapiens, 18 h, read-out: Whole Blood: IL-6 IC50): 3.04 µM; IC50 (IL-6; Homo sapiens, read-out: IC50 IL-6): 3.04 µM; IC50 (IL-12p70; Homo sapiens, 18 h, read-out: Whole Blood: IL-12p70 IC50): 12.2 µM; IC50 (IL-12p70; Homo sapiens, read-out: IC50 IL-12p70): 12.2 µM; IC50 (IL-17F; Homo sapiens, 18 h, read-out: Whole Blood: IL-17F IC50): 2.4 µM; IC50 (IL-17F; Homo sapiens, read-out: IC50 IL-17F): 2.4 µM; IC50 (IL-21; Homo sapiens, 18 h, read-out: Whole Blood: IL-21 IC50): 0.3 µM; IC50 (IL-21; Homo sapiens, read-out: IC50 IL-21): 0.3 µM
O=C(O)c1cc(O)c(C(=O)Nc2ccccc2S(=O)(=O)O)cc1O [Ia-001c, 2,5-dihydroxy-4-(2-sulfophenylaminocarbonyl)benzoic acid] | > 100 | 100 | 12.8 | 12.8 | 0.95 | 0.95 | 0.44 | 0.44 | 89.7 | 89.7 | > 100 | 100 | –
O=C(O)c1cc(NC(=O)c2cc(O)c(C(=O)O)cc2O)cc(C(=O)O)c1 [Ia-015a, 5-(4-carboxy-2,5-dihydroxybenzamido)isophthalic acid] | 2.76 | 2.76 | 7.08 | 7.08 | 0.77 | 0.77 | 0.12 | 0.12 | 0.15 | 0.15 | 57.2 | 57.2 | –
